Reference: US9758538B2, “Pyrimidine derivatives” (PFIZER INC., priority 2015, dated 2017)

Target: truncated PI3Kα (p110α/iSH2 p85α), PI3KA_Act (Homo sapiens (Human), UniProt P42336)
Test: PI3Kα biochemical kinase assay, fluorescence polarization format (PI3KA_Act)
Conditions: 0.5 nM p110α/iSH2 p85, 1 mM ATP, 30 μM PIP2, 15-min preincubation; Morrison equation fit; read-out: PI3KA_Act Ki
Method: Enzyme Production for Biochemical Assay: p110α-iSH2 p85α Complex (Full Length p110α and p85α iSH2)(“PI3KA Act”)
Gene encoding p110α subunit was subcloned into polyhedrine promoter while gene encoding p85α niSH2 domains was subcloned into p10 promoter. […] Recombinant baculovirus was generated using Bac-to-Bac protocol (Life Technologies, Carlsbad, Calif.). Large scale expression was conducted in Sf21 (Life Technologies, Carlsbad, Calif.) cells at a multiplicity of infection (“MOI”)=1 for 48 hours. Cells were lyzed in 50 mM Tris pH 8.0, 250 mM NaCl, 5% glycerol, 0.25 mM TCEP, and 20 mM imidazole. The p110α-niSH2 p85α complex was purified from clarified supernatant using Immobilized Metalo Affinity Chromatography (“IMAC”). The protein was eluted from the column using 50 mM Tris pH 8.0, 200 mM NaCl, 0.25 mM TCEP, and 200 mM imidazole. Following elution p110α-niSH2 p85α complex was dialyzed against 4 liters of 50 mM Tris pH 8.0, 200 mM NaCl, 0.25 mM TCEP, and 40 mM imidazole in the presence of PreScission Protease (1:70 molar ratio of Protease to Protein) and TEV protease (1:40 molar ratio protease to protein) for 16 hours at 4° C. The protein was further purified using reverse IMAC to remove cleaved histidine tag and contaminants captured during initial IMAC purification. The mixture of p110α-iSH2 p85α complex and cleaved nSH2 was recovered in reverse IMAC 40 mM imidazole flow through and 60 mM imidazole wash fractions. Those fractions were pulled together and loaded on Superdex 200 26/60 SEC column equilibrated in 25 mM Tris, pH 8.0, 100 mM NaCl, 2% glycerol, and 2 mM TCEP.
The enzymatic reactions were conducted in 50 μL volumes in 96-well plates. […] The reactions were incubated for 30 min at room temperature, stopped with EDTA pH 8 (10 mM final concentration). […] The plate was shaken for 30 minutes and fluorescence polarization values were measured on an LJL Analyst HT plate reader (Molecular Devices, Sunnyvale, Calif.).

Chain of truncated PI3Kα (p110α/iSH2 p85α), PI3KA_Act (P42336 whole entry, the tested form may be a part): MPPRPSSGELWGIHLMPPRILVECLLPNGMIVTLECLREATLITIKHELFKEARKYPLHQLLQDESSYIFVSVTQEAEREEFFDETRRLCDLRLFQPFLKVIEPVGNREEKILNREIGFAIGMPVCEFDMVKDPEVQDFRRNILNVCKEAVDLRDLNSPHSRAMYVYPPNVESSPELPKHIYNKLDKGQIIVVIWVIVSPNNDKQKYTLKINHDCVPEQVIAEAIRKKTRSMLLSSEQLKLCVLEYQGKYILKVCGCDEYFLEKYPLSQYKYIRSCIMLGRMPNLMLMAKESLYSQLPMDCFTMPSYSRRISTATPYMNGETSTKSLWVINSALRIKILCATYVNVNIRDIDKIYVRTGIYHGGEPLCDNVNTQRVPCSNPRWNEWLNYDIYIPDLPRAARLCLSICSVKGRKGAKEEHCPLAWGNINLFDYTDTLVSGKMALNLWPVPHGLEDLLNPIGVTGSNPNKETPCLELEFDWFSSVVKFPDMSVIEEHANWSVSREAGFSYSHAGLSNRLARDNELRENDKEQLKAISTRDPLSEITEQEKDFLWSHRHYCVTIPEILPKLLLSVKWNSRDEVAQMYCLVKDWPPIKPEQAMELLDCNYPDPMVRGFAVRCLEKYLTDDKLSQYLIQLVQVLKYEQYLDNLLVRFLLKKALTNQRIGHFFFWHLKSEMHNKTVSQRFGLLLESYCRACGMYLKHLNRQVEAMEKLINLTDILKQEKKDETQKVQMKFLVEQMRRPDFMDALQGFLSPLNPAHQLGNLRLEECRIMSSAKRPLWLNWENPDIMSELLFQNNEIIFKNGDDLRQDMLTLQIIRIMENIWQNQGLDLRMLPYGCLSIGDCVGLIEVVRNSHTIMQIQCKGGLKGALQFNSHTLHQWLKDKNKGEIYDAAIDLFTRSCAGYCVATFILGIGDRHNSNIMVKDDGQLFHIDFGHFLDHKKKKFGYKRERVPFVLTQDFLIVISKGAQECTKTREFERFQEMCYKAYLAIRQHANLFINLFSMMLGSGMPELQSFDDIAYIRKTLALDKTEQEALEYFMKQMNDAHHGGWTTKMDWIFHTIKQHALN

`COC(=O)N1CC[C@](CO)(Nc2nc(N3CCOC[C@@H]3C)nc(-c3cnc(N)nc3)c2F)C1` [Example 114, methyl (3S)-3-({2′-amino-5-fluoro-2-[(3S)-3-methylmorpholin-4-yl]-4,5′-bipyrimidin-6-yl}amino)-3-(hydroxymethyl)pyrrolidine-1-carboxylate] and `COC(=O)N1CCC[C@](CO)(Nc2nc(N3CCOCC3)nc(-c3cnc(N)nc3)c2F)C1` [Example 154, methyl (3S)-3-{[2′-amino-5-fluoro-2-(morpholin-4-yl)-4,5′-bipyrimidin-6-yl]amino}-3-(hydroxymethyl)piperidine-1-carboxylate] cannot be ordered by Ki: under 0.018 nM for the first, under 0.018 nM for the second.

Going from `CC(C)C(=O)N1CC[C@](C)(Nc2nc(N3CCOCC3)nc(-c3cnc(N)nc3)c2F)C1` [Example 107, 1-[(3S)-3-{[2′-amino-5-fluoro-2-(morpholin-4-yl)-4,5′-bipyrimidin-6-yl]amino}-3-methylpyrrolidin-1-yl]-2-methylpropan-1-one] to `CC(=O)N1CCC[C@@](CO)(Nc2nc(N3CCOCC3)nc(-c3cnc(N)nc3)c2F)C1` [Example 152, 1-[(3R)-3-{[2′-amino-5-fluoro-2-(morpholin-4-yl)-4,5′-bipyrimidin-6-yl]amino}-3-(hydroxymethyl)piperidin-1-yl]ethanone], the Ki rises from 0.23 nM to 1.65 nM (7.2-fold). The first binds more tightly here.

`CC(C)OC(=O)N1CC[C@](CO)(Nc2cc(-c3cnc(N)nc3)nc(N3CCOCC3)n2)C1` [Example 44, propan-2-yl (3S)-3-{[2′-amino-2-(morpholin-4-yl)-4,5′-bipyrimidin-6-yl]amino}-3-(hydroxymethyl)pyrrolidine-1-carboxylate] and `COC(=O)N1CCCC(CO)(Nc2cc(-c3cnc(N)nc3)nc(N3CCOCC3)n2)C1` (racemic) [Example 4, methyl 3-{[2′-amino-2-(morpholin-4-yl)-4,5′-bipyrimidin-6-yl]amino}-3-(hydroxymethyl)piperidine-1-carboxylate] are within 1.5-fold of each other in Ki: 0.032 nM for the first, 0.03 nM for the second.

Compared with `Nc1ncc(-c2nc(N3CCOCC3)nc(N[C@@]3(CO)CCN(C(=O)C4(F)CCC4)C3)c2F)cn1` [Example 115, [(3S)-3-{[2′-amino-5-fluoro-2-(morpholin-4-yl)-4,5′-bipyrimidin-6-yl]amino}-3-(hydroxymethyl)pyrrolidin-1-yl](1-fluorocyclobutyl)methanone], `Nc1ncc(-c2nc(N3CCOCC3)nc(N[C@@]3(CO)CCCN(C(=O)C4(F)CC4)C3)c2F)cn1` [Example 159, [(3S)-3-{[2′-amino-5-fluoro-2-(morpholin-4-yl)-4,5′-bipyrimidin-6-yl]amino}-3-(hydroxymethyl)piperidin-1-yl](1-fluorocyclopropyl)methanone] is 2.8-fold higher in Ki: 0.036 nM for the first, 0.102 nM for the second. The first binds more tightly here.

First: Nc1ncc(-c2cc(N[C@@]3(CO)CCN(C(=O)C4(F)CC4)C3)nc(N3CCOCC3)n2)cn1 [Example 56, [(3S)-3-{[2′-amino-2-(morpholin-4-yl)-4,5′-bipyrimidin-6-yl]amino}-3-(hydroxymethyl)pyrrolidin-1-yl](1-fluorocyclopropyl)methanone]
Second: COC(=O)N1CCC[C@@](CO)(Nc2cc(-c3cnc(N)nc3)nc(N3CCOCC3)n2)C1 [Example 6, methyl (3R)-3-{[2′-amino-2-(morpholin-4-yl)-4,5′-bipyrimidin-6-yl]amino}-3-(hydroxymethyl)piperidine-1-carboxylate]
The Ki of the first is lower: under 0.018 nM for the first, 0.881 nM for the second.

First: Nc1ncc(-c2cc(N[C@@]3(CO)CCN(C(=O)c4ncccn4)C3)nc(N3CCOCC3)n2)cn1 [Example 87, [(3S)-3-{[2′-amino-2-(morpholin-4-yl)-4,5′-bipyrimidin-6-yl]amino}-3-(hydroxymethyl)pyrrolidin-1-yl](pyrimidin-2-yl)methanone]
Second: CC(=O)N1CC(CO)(Nc2cc(-c3cnc(N)nc3)nc(N3CCOCC3)n2)C1 [Example 42, 1-[3-{[2′-amino-2-(morpholin-4-yl)-4,5′-bipyrimidin-6-yl]amino}-3-(hydroxymethyl)azetidin-1-yl]ethanone]
The Ki of the first is 7.7-fold lower: 0.085 nM for the first, 0.651 nM for the second.

First: COC[C@]1(Nc2cc(-c3cnc(N)nc3)nc(N3CCOCC3)n2)CCNC1 [Example 122, N˜6˜-[(3S)-3-(methoxymethyl)pyrrolidin-3-yl]-2-(morpholin-4-yl)-4,5′-bipyrimidine-2′,6-diamine]
Second: Nc1ncc(-c2cc(N[C@]3(CO)CCNC3)nc(N3CCOCC3)n2)cn1 [Example 30, [(3R)-3-{[2′-amino-2-(morpholin-4-yl)-4,5′-bipyrimidin-6-yl]amino}pyrrolidin-3-yl]methanol]
The Ki of the first is 8.9-fold higher: 21.5 nM for the first, 2.42 nM for the second. The second binds more tightly here.

First: CC(C)(C)OC(=O)N1CCC(CF)(Nc2cc(-c3cnc(N)nc3)nc(N3CCOCC3)n2)C1 (stereo not drawn) [Example 110, tert-butyl 3-{[2′-amino-2-(morpholin-4-yl)-4,5′-bipyrimidin-6-yl]amino}-3-(fluoromethyl)pyrrolidine-1-carboxylate]
Second: CC(C)(C)OC(=O)N1CCCC(CO)(Nc2cc(-c3cnc(N)nc3)nc(N3CCOCC3)n2)C1 (stereo not drawn) [Example 123, tert-butyl 3-{[2′-amino-2-(morpholin-4-yl)-4,5′-bipyrimidin-6-yl]amino}-3-(hydroxymethyl)piperidine-1-carboxylate]
The Ki of the first is 24-fold lower: 0.072 nM for the first, 1.7 nM for the second.

`Nc1ncc(-c2nc(N3CCOCC3)nc(N[C@@]3(CO)CCCNC3)c2F)cn1` [Example 145, [(3S)-3-{[2′-amino-5-fluoro-2-(morpholin-4-yl)-4,5′-bipyrimidin-6-yl]amino}piperidin-3-yl]methanol] and `COCC(=O)N1CCC[C@@](CO)(Nc2nc(N3CCOCC3)nc(-c3cnc(N)nc3)c2F)C1` [Example 151, 1-[(3R)-3-{[2′-amino-5-fluoro-2-(morpholin-4-yl)-4,5′-bipyrimidin-6-yl]amino}-3-(hydroxymethyl)piperidin-1-yl]-2-methoxyethanone] are within 1.5-fold of each other in Ki: 2.53 nM for the first, 1.82 nM for the second.

Going from `CCOC(=O)N1CC[C@](CO)(Nc2cc(-c3cnc(C)nc3)nc(N3CCOCC3)n2)C1` [Example 130, ethyl (3S)-3-(hydroxymethyl)-3-{[2′-methyl-2-(morpholin-4-yl)-4,5′-bipyrimidin-6-yl]amino}pyrrolidine-1-carboxylate] to `CC(O)[C@]1(Nc2cc(-c3cnc(N)nc3)nc(N3CCOCC3)n2)CCN(C(=O)OC(C)(C)C)C1` (stereo partly drawn) [Example 10, tert-butyl (3S)-3-{[2′-amino-2-(morpholin-4-yl)-4,5′-bipyrimidin-6-yl]amino}-3-(1-hydroxyethyl)pyrrolidine-1-carboxylate], the Ki rises from 0.83 nM to 1.62 nM (2-fold). The first binds more tightly here.

Compared with `C[C@H]1COCCN1c1nc(N[C@@]2(CF)CCN(C(=O)OC(C)(C)C)C2)cc(-c2cnc(N)nc2)n1` [Example 124, tert-butyl (3S)-3-({2′-amino-2-[(3S)-3-methylmorpholin-4-yl]-4,5′-bipyrimidin-6-yl}amino)-3-(fluoromethyl)pyrrolidine-1-carboxylate], `C[C@H]1COCCN1c1nc(N[C@]2(C)CCN(C(=O)OC(C)(C)C)C2)cc(-c2cnc(N)nc2)n1` [Example 15, tert-butyl (3R)-3-({2′-amino-2-[(3S)-3-methylmorpholin-4-yl]-4,5′-bipyrimidin-6-yl}amino)-3-methylpyrrolidine-1-carboxylate] is 21-fold higher in Ki: 0.046 nM for the first, 0.979 nM for the second. The first binds more tightly here.

Compared with `Nc1ncc(-c2nc(N3CCOCC3)nc(N[C@@]3(COP(=O)(O)O)CCN(C(=O)OCC(F)F)C3)c2F)cn1` [Example 3, 2,2-difluoroethyl (3S)-3-{[2′-amino-5-fluoro-2-(morpholin-4-yl)-4,5′-bipyrimidin-6-yl]amino}-3-[(phosphonooxy)methyl]pyrrolidine-1-carboxylate], `CN(c1cc(-c2cnc(N)nc2)nc(N2CCOCC2)n1)C1(CO)CCN(C(=O)OC(C)(C)C)C1` (single isomer, unassigned) [Example 26, tert-butyl 3-{[2′-amino-2-(morpholin-4-yl)-4,5′-bipyrimidin-6-yl](methyl)amino}-3-(hydroxymethyl)pyrrolidine-1-carboxylate] is lower in Ki: 2.61 nM for the first, under 0.018 nM for the second.

`C[C@H]1COCCN1c1nc(NC2(CO)CNC2)cc(-c2cnc(N)nc2)n1` [Example 54, [3-({2′-amino-2-[(3S)-3-methylmorpholin-4-yl]-4,5′-bipyrimidin-6-yl}amino)azetidin-3-yl]methanol] and `Nc1ncc(-c2cc(NC3(CO)CNC3)nc(N3CCOCC3)n2)cn1` [Example 43, (3-{[2′-amino-2-(morpholin-4-yl)-4,5′-bipyrimidin-6-yl]amino}azetidin-3-yl)methanol] are within 1.5-fold of each other in Ki: 2.67 nM for the first, 1.97 nM for the second.

`C[C@H]1COCCN1c1nc(N[C@@]2(CO)CCN(C(=O)C3COC3)C2)cc(-c2cnc(N)nc2)n1` [Example 104, [(3S)-3-({2′-amino-2-[(3S)-3-methylmorpholin-4-yl]-4,5′-bipyrimidin-6-yl}amino)-3-(hydroxymethyl)pyrrolidin-1-yl](oxetan-3-yl)methanone] showed a Ki of 0.674 nM.
